This note sets out measurements from the supplement of paper PMC10307832.

What all share (test): relative viability (nuclei count vs DMSO), 5 days (fraction); higher = more cells survive
Compound in test [1]: C1=CC=C2C(=C1)N=C(S2)C(C#N)C3=NC(=NC=C3)NCCC4=CN=CC=C4 + Cc1nc(NC(=O)N2CCC[C@H]2C(N)=O)sc1-c1ccnc(C(C)(C)C(F)(F)F)c1 [Alpelisib] (partner 2 µM)
In short, it runs like this: (§1)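 Relative viability divides the nuclei count in treated wells by that in vehicle wells. Lung cancer cell lines were seeded in 1536-well plates, dosed by pin tool the next day, and fixed and stained after 5 days in one step with final 0.05% Triton X-100, 1% formaldehyde and 1 ug/ml Hoechst. Dosing was a single drug or a fixed anchor-drug dose plus five library-drug doses (not always all listed) in √10 steps, and values are medians of duplicate plates imaged at 4×.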

Compound in test [2]: C#Cc1cccc(Nc2ncnc3cc(OC)c(OCCCCCCC(=O)NO)cc23)c1 [CUDC-101] + CC1(C)CCC(c2ccc(Cl)cc2)=C(CN2CCN(c3ccc(C(=O)NS(=O)(=O)c4ccc(N[C@H](CCN5CCOCC5)CSc5ccccc5)c(S(=O)(=O)C(F)(F)F)c4)cc3)CC2)C1 [Navitoclax] (partner 0.5 µM)
In short, it runs like this: as §1

Compound in test [3]: COc1cc(N2CCC(N3CCN(C)CC3)CC2)ccc1Nc1ncc(Cl)c(Nc2ccccc2S(=O)(=O)C(C)C)n1 [NVP-TAE684] + O=C(CCCCCCC(=O)Nc1ccccc1)NO [Vorinostat] (partner 1 µM)
In short, it runs like this:
as §1

Compound in test [4]: C#Cc1cccc(Nc2ncnc3cc(OC)c(OCCCCCCC(=O)NO)cc23)c1 [CUDC-101] + COc1cc2c(Oc3ccc(NC(=O)C4(C(=O)Nc5ccc(F)cc5)CC4)cc3F)ccnc2cc1OCCCN1CCOCC1 [Foretinib] (partner 0.25 µM)
Summed up:
as §1

For the cell line UMC-11, the relative viability in test [1] (first compound 0.005 µM) was found to be 0.644; in test [1] (first compound 0.01581 µM), 1.12; in test [1] (first compound 0.05 µM), 0.924; in test [1] (first compound 0.1581 µM) it was 1.11; in test [1] (first compound 0.5 µM) it was 0.78; in test [2] (first compound 0.01 µM) it was 0.313. Also, the relative viability in test [2] (first compound 0.03162 µM) came to 0.302; in test [2] (first compound 0.1 µM), 0.257; in test [2] (first compound 0.3162 µM), 0.225; in test [2] (first compound 1 µM) it was 0.0766; in test [3] (first compound 0.2 µM) it was 0.385; in test [3] (first compound 0.6325 µM), 0.336. The relative viability in test [3] (first compound 2 µM) was determined as 0.186; in test [4] (first compound 0.01 µM) it was 1.06; in test [4] (first compound 0.03162 µM) it was 1.03; in test [4] (first compound 0.1 µM), 0.945; in test [4] (first compound 0.3162 µM), 0.317; in test [4] (first compound 1 µM), 0.106.
